Reference: US20240066155A1, “DUAL MODE RADIOTRACER AND -THERAPEUTICS” (priority 2021, published 2024)
Several values for one entry are separate records, joined by “and”; a condition that tells them apart may be missing. Equal values may be shown once.

Key:
PSMA = target: T1, PSMA (Homo sapiens, UniProt Q04609); assay: Competitive binding studies on LNCaP cells vs ([125I]BA)KuE (affinity, IC50); conditions: 1 h, 4° C., natLu complexes
T1 construct: endogenous in cells; host or cells: LNCaP cells
Protocol: (§1) Competitive binding studies were determined on LNCaP cells (1.5×10^5 cells in 1 mL/well) after incubation at 4° C. for 1 h, using (((S)-1-carboxy-5-(4-([^125I]iodo)benzamido)pentyl)carbamoyl)-L-glutamic acid ([^125I]BA)KuE; 0.2 nM/well) as reference radioligand (n=3). Internalization studies of the radiolabeled ligands (1.0 nM/well) were performed on LNCaP cells (1.25×10^5 cells in 1 mL/well) at 37° C. for 1 h and accompanied by ([^125I]BA)KuE (0.2 nM/well), as reference. Data were corrected for non-specific binding and normalized to the specific internalization observed for the reference (n=3). A detailed description of the experimental procedures was previously published (Wurzer A, et al. J Nucl Med. 2020; 61: 735-742).

[1] = Lipophilicity, n-octanol/PBS (pH 7.4) distribution; type: physicochemical; conditions: n-octanol/PBS pH 7.4, 177Lu-labeled, n=6
Protocol: Approximately 1 MBq of the ^177Lu-labeled PSMA ligand was dissolved in 1 mL of a 1:1 mixture (v/v) of phosphate-buffered saline (PBS, pH 7.4) and n-octanol (n=6). After vigorous mixing of the suspension for 3 min, the vial was centrifuged at 15000×g for 3 min and 100 μL aliquots of both layers were measured in a γ-counter. Finally, the ratio of the radioactivity detected in the n-octanol sample and the PBS buffer was calculated and expressed as distribution ratio log D7.4.

LNCaP cells = assay: PSMA-mediated internalization into LNCaP cells; type: cell-based; conditions: 1 h, 37° C., percentage of reference ligand ([125I]BA)KuE, n=3
Protocol: as §1

human serum albumin = target: T2, human serum albumin (Homo sapiens, UniProt P02768); assay: Binding to human serum albumin by albumin mediated size exclusion chromatography (AMSEC); type: in vitro ADME; conditions: size exclusion chromatography with HSA in the mobile phase, 177Lu-labeled
T2 construct: purchased Biowest, Nuaillé, France
Protocol: Binding of ^177Lu-labeled ligands to HSA was assessed by albumin mediated size exclusion chromatography (AMSEC). A gel filtration size exclusion column (Superdex 75 Increase 10/300 GL, GE Healthcare, Uppsala, Sweden) was used with HSA buffer at physiological concentration (700 μM, Biowest, Nuaillé, France) as mobile phase (constant flow rate of 0.8 mL/min at room temperature). For calibration purposes, a commercially available set of proteins (GE Healthcare, Buckinghamshire, UK) was used. Under these chromatographic conditions, the retention time of a radioligand (1.0 MBq, 10-20 GBq/μmol) depends on the extent of HSA/ligand interactions and thus, by means of the calibration with the aforementioned set of proteins, can be translated into an AMW (expressed in kDa) as a parameter allowing to quantify the extent of HSA binding. The detection window ranges between 2.3 kDa ([^18F]Fluoride; no HSA interaction) and 70.2 kDa (experimental molecular weight of HSA; maximum HSA interaction).

T2 sequence (P02768 25-609): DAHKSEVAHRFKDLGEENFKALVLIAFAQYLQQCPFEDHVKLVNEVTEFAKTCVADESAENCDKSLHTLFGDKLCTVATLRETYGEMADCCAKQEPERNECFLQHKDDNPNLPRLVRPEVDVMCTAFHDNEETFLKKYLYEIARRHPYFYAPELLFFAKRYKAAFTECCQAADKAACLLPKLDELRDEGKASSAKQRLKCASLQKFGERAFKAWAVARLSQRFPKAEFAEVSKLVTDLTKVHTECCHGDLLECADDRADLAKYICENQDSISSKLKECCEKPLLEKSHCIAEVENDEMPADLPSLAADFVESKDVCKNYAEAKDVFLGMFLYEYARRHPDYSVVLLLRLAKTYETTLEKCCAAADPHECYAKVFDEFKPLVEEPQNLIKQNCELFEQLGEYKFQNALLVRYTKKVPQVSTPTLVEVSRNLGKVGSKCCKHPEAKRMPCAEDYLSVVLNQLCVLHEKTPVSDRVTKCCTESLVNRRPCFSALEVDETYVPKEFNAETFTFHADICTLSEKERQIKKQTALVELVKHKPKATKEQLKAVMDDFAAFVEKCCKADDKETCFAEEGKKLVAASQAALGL
T1 sequence (Q04609 whole entry): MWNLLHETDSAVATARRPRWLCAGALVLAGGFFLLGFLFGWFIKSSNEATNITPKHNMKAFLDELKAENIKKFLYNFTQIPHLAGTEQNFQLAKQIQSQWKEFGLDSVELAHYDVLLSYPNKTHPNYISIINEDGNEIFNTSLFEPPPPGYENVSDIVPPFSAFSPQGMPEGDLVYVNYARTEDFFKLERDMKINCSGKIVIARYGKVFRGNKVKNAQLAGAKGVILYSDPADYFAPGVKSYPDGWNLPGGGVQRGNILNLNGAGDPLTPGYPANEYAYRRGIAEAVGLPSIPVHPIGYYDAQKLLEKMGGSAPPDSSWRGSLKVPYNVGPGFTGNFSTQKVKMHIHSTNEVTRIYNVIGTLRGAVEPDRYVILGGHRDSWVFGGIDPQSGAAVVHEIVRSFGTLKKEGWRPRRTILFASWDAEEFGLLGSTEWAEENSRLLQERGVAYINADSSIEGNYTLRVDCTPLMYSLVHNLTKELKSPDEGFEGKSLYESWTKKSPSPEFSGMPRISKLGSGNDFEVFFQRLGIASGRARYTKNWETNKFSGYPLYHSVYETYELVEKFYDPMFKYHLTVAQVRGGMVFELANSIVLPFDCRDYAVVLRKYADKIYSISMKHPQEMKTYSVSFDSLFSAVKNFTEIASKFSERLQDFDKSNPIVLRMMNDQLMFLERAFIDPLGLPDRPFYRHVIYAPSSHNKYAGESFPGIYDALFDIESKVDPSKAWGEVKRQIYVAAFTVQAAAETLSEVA

Row | SMILES | IC50 (PSMA; n=3) | logD7.4 [1] | Internalization [% IBA-KuE] (LNCaP cells) | MWapp [kDa] (apparent molecular weight, AMW; HSA binding) (human serum albumin) | IC50 (PSMA; n=3, listed as [^natLu]PSMA-617)
1 | CC(C)(C)[Si](F)(c1ccc(C(=O)NC[C@@H](NC(=O)CC[C@H](C(=O)O)N2CCN(CC(=O)[O-])CCN(CC(=O)[O-])CCN(CC(=O)[O-])CC2)C(=O)N[C@H](CCCCNC(=O)CCC(=O)NCCC[C@@H](NC(=O)CC[C@H](NC(=O)N[C@@H](CCC(=O)O)C(=O)O)C(=O)O)C(=O)O)C(=O)O)cc1)C(C)(C)C.[Lu+3] [[^177Lu, ^19F]rhPSMA-7.1] | 3.11 ± 0.64 nM | −4.27 ± 0.24 | 137±6 % IBA-KuE and 137.4 ± 5.8 % IBA-KuE | 26.3 kDa | –
2 | CC(C)(C)[Si](F)(c1ccc(C(=O)NC[C@H](NC(=O)CC[C@H](C(=O)O)N2CCN(CC(=O)[O-])CCN(CC(=O)[O-])CCN(CC(=O)[O-])CC2)C(=O)N[C@H](CCCCNC(=O)CCC(=O)NCCC[C@@H](NC(=O)CC[C@H](NC(=O)N[C@@H](CCC(=O)O)C(=O)O)C(=O)O)C(=O)O)C(=O)O)cc1)C(C)(C)C.[Lu+3] [[^177Lu, ^19F]rhPSMA-7.2] | 2.88 ± 1.06 nM | −4.25 ± 0.29 | 197.3 ± 15.0 % IBA-KuE | 31.7 kDa | –
3 | CC(C)(C)[Si](F)(c1ccc(C(=O)NC[C@H](NC(=O)CC[C@@H](C(=O)O)N2CCN(CC(=O)[O-])CCN(CC(=O)[O-])CCN(CC(=O)[O-])CC2)C(=O)N[C@H](CCCCNC(=O)CCC(=O)NCCC[C@@H](NC(=O)CC[C@H](NC(=O)N[C@@H](CCC(=O)O)C(=O)O)C(=O)O)C(=O)O)C(=O)O)cc1)C(C)(C)C.[Lu+3] [[^177Lu, ^19F]rhPSMA-7.4] | 3.06 ± 1.51 nM | −4.10 ± 0.14 | 190.4 ± 10.5 % IBA-KuE | 35.7 kDa | –
4 | O=C([O-])CN1CCN(CC(=O)[O-])CCN(CC(=O)NCC2CCC(C(=O)N[C@@H](Cc3ccc4ccccc4c3)C(=O)NCCCC[C@H](NC(=O)N[C@@H](CCC(=O)O)C(=O)O)C(=O)O)CC2)CCN(CC(=O)[O-])CC1.[177Lu+3] (some centres unmarked) [[^177Lu]PSMA-617] | 3.27 ± 0.19 nM | −4.1 ± 0.1 | 203±10 % IBA-KuE and 203.2 ± 10.1 % IBA-KuE | 13.7 kDa | 3.3 ± 0.2 nM
